System: 454973-116-R2-J3-PDC spheroids, viability, % test/control
Assay: Anticancer human tumor 454973-116-R2-J3-PDC patient-derived pancreatic carcinoma cell line growth inhibition [GQUAD]
Conditions: spheroids with HUVEC and MSC; for IC50: curve of first compound; for viability, T/C: stronger effect = lower value
How it was run: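 Viability of tumor cells grown as complex spheroids with endothelial and stromal cells, exposed to drug combinations. Top concentration at or near clinical Cmax (else 10 microM), diluted in half-log increments.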

[1] = second compound 0.0316 µM, first compound 0.0316 µM
[2] = second compound 0.0316 µM, first compound 0.1 µM
[3] = second compound 0.0316 µM, first compound 0.316 µM
[4] = second compound 0.0316 µM, first compound 1 µM
[5] = second compound 0.0316 µM, first compound 3.16 µM
[6] = second compound 0.0316 µM, first compound 10 µM
[7] = second compound 0.1 µM, first compound 0.0316 µM
[8] = second compound 0.1 µM, first compound 0.1 µM
[9] = second compound 0.1 µM, first compound 0.316 µM
[10] = second compound 0.1 µM, first compound 1 µM
[11] = second compound 0.1 µM, first compound 3.16 µM
[12] = second compound 0.1 µM, first compound 10 µM
[13] = second compound 0.316 µM, first compound 0.0316 µM
[14] = second compound 0.316 µM, first compound 0.1 µM
[15] = second compound 0.316 µM, first compound 0.316 µM
[16] = second compound 0.316 µM, first compound 1 µM
[17] = second compound 0.316 µM, first compound 3.16 µM
[18] = second compound 0.316 µM, first compound 10 µM
[19] = second compound 1 µM, first compound 0.0316 µM
[20] = second compound 1 µM, first compound 0.1 µM
[21] = second compound 1 µM, first compound 0.316 µM
[22] = second compound 1 µM, first compound 1 µM
[23] = second compound 1 µM, first compound 3.16 µM
[24] = second compound 1 µM, first compound 10 µM
[25] = second compound 3.16 µM, first compound 0.0316 µM
[26] = second compound 3.16 µM, first compound 0.1 µM
[27] = second compound 3.16 µM, first compound 0.316 µM
[28] = second compound 3.16 µM, first compound 1 µM
[29] = second compound 3.16 µM, first compound 3.16 µM
[30] = second compound 3.16 µM, first compound 10 µM
[31] = second compound 10 µM, first compound 0.0316 µM
[32] = second compound 10 µM, first compound 0.1 µM
[33] = second compound 10 µM, first compound 0.316 µM
[34] = second compound 10 µM, first compound 1 µM
[35] = second compound 10 µM, first compound 3.16 µM
[36] = second compound 10 µM, first compound 10 µM
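Also: spheroids exposed to compounds for seven days.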
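For viability, T/C in this document: 100% = DMSO vehicle control viability.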

Compound: C#Cc1c(F)ccc2cc(O)cc(-c3ncc4c(N5CC6CCC(C5)N6)nc(OCC56CCCN5CC(F)C6)nc4c3F)c12 (stereo not given) + CN(C)c1ccc(Nc2c3ccc(NC(=O)CCN4CCCC4)cc3nc3cc(NC(=O)CCN4CCCC4)ccc23)cc1
- IC50 (second compound 0.0316 µM): 0.0417 µM
- IC50 (second compound 0.1 µM): 0.0523 µM
- IC50 (second compound 0.316 µM): 0.0318 µM
- IC50 (second compound 1 µM): < 0.0316 µM
- IC50 (second compound 3.16 µM): 0.0397 µM
- IC50 (second compound 10 µM): < 0.0316 µM
- viability, T/C [1]: 54.1%
- viability, T/C [2]: 37.5%
- viability, T/C [3]: 28.1%
- viability, T/C [4]: 20.2%
- viability, T/C [5]: 20.2%
- viability, T/C [6]: 15.8%
- viability, T/C [7]: 56.4%
- viability, T/C [8]: 41.9%
- viability, T/C [9]: 24.3%
- viability, T/C [10]: 22.4%
- viability, T/C [11]: 21.2%
- viability, T/C [12]: 16.9%
- viability, T/C [13]: 50%
- viability, T/C [14]: 35.7%
- viability, T/C [15]: 23%
- viability, T/C [16]: 21.4%
- viability, T/C [17]: 17.4%
- viability, T/C [18]: 15.7%
- viability, T/C [19]: 49.4%
- viability, T/C [20]: 33.1%
- viability, T/C [21]: 26.9%
- viability, T/C [22]: 16.9%
- viability, T/C [23]: 18.6%
- viability, T/C [24]: 18%
- viability, T/C [25]: 53.8%
- viability, T/C [26]: 36%
- viability, T/C [27]: 26.9%
- viability, T/C [28]: 23%
- viability, T/C [29]: 21.3%
- viability, T/C [30]: 12.1%
- viability, T/C [31]: 44.9%
- viability, T/C [32]: 26.7%
- viability, T/C [33]: 17.5%
- viability, T/C [34]: 13.4%
- viability, T/C [35]: 3.6%
- viability, T/C [36]: 0.44%

Compound: CC(=O)O[C@H]1C(=O)[C@@]2(C)[C@H]([C@H](OC(=O)c3ccccc3)[C@]3(O)C[C@H](OC(=O)[C@H](O)[C@@H](NC(=O)c4ccccc4)c4ccccc4)C(C)=C1C3(C)C)[C@]1(OC(C)=O)CO[C@@H]1C[C@@H]2O + CN(C)c1ccc(Nc2c3ccc(NC(=O)CCN4CCCC4)cc3nc3cc(NC(=O)CCN4CCCC4)ccc23)cc1
- IC50 (second compound 0.0316 µM): < 0.0316 µM
- IC50 (second compound 0.1 µM): < 0.0316 µM
- IC50 (second compound 0.316 µM): < 0.0316 µM
- IC50 (second compound 1 µM): < 0.0316 µM
- IC50 (second compound 3.16 µM): < 0.0316 µM
- IC50 (second compound 10 µM): < 0.0316 µM
- viability, T/C [1]: 16.5%
- viability, T/C [2]: 8.43%
- viability, T/C [3]: 9.5%
- viability, T/C [4]: 7.36%
- viability, T/C [5]: 8.24%
- viability, T/C [6]: 10.1%
- viability, T/C [7]: 16%
- viability, T/C [8]: 11.7%
- viability, T/C [9]: 7.58%
- viability, T/C [10]: 6.11%
- viability, T/C [11]: 8.15%
- viability, T/C [12]: 7.98%
- viability, T/C [13]: 14%
- viability, T/C [14]: 10%
- viability, T/C [15]: 8.64%
- viability, T/C [16]: 7.04%
- viability, T/C [17]: 8.84%
- viability, T/C [18]: 10.1%
- viability, T/C [19]: 16%
- viability, T/C [20]: 8.67%
- viability, T/C [21]: 6.76%
- viability, T/C [22]: 7.25%
- viability, T/C [23]: 6.69%
- viability, T/C [24]: 9.71%
- viability, T/C [25]: 15.5%
- viability, T/C [26]: 9.08%
- viability, T/C [27]: 8.56%
- viability, T/C [28]: 6.91%
- viability, T/C [29]: 6.53%
- viability, T/C [30]: 8.28%
- viability, T/C [31]: 21.6%
- viability, T/C [32]: 12.1%
- viability, T/C [33]: 8.85%
- viability, T/C [34]: 7.09%
- viability, T/C [35]: 8.15%
- viability, T/C [36]: 8.56%

Compound: CCCS(=O)(=O)Nc1ccc(F)c(C(=O)c2c[nH]c3ncc(-c4ccc(Cl)cc4)cc23)c1F + CN(C)c1ccc(Nc2c3ccc(NC(=O)CCN4CCCC4)cc3nc3cc(NC(=O)CCN4CCCC4)ccc23)cc1
- IC50 (second compound 0.0316 µM): 5.41 µM
- IC50 (second compound 0.1 µM): 6.13 µM
- IC50 (second compound 0.316 µM): 6.15 µM
- IC50 (second compound 1 µM): 5.52 µM
- IC50 (second compound 3.16 µM): 5.44 µM
- IC50 (second compound 10 µM): 3.72 µM
- viability, T/C [1]: 108%
- viability, T/C [2]: 104%
- viability, T/C [3]: 114%
- viability, T/C [4]: 110%
- viability, T/C [5]: 85%
- viability, T/C [6]: 10%
- viability, T/C [7]: 103%
- viability, T/C [8]: 98%
- viability, T/C [9]: 103%
- viability, T/C [10]: 123%
- viability, T/C [11]: 106%
- viability, T/C [12]: 8.55%
- viability, T/C [13]: 98.5%
- viability, T/C [14]: 101%
- viability, T/C [15]: 108%
- viability, T/C [16]: 105%
- viability, T/C [17]: 102%
- viability, T/C [18]: 11.7%
- viability, T/C [19]: 88.1%
- viability, T/C [20]: 94.3%
- viability, T/C [21]: 104%
- viability, T/C [22]: 87.9%
- viability, T/C [23]: 85.1%
- viability, T/C [24]: 12.6%
- viability, T/C [25]: 90%
- viability, T/C [26]: 74.1%
- viability, T/C [27]: 101%
- viability, T/C [28]: 89.5%
- viability, T/C [29]: 82.4%
- viability, T/C [30]: 13.5%
- viability, T/C [31]: 68.3%
- viability, T/C [32]: 70%
- viability, T/C [33]: 80.3%
- viability, T/C [34]: 67.2%
- viability, T/C [35]: 57.9%
- viability, T/C [36]: 4.49%

Compound: Nc1ccn(C2OC(CO)C(O)C2(F)F)c(=O)n1 (stereo not given) + CN(C)c1ccc(Nc2c3ccc(NC(=O)CCN4CCCC4)cc3nc3cc(NC(=O)CCN4CCCC4)ccc23)cc1
- IC50 (second compound 0.0316 µM): < 0.0316 µM
- IC50 (second compound 0.1 µM): < 0.0316 µM
- IC50 (second compound 0.316 µM): < 0.0316 µM
- IC50 (second compound 1 µM): < 0.0316 µM
- IC50 (second compound 3.16 µM): < 0.0316 µM
- IC50 (second compound 10 µM): < 0.0316 µM
- viability, T/C [1]: 19%
- viability, T/C [2]: 13.3%
- viability, T/C [3]: 16.6%
- viability, T/C [4]: 13.1%
- viability, T/C [5]: 14.7%
- viability, T/C [6]: 15.6%
- viability, T/C [7]: 20.7%
- viability, T/C [8]: 13.5%
- viability, T/C [9]: 14.9%
- viability, T/C [10]: 16.6%
- viability, T/C [11]: 13.2%
- viability, T/C [12]: 15.4%
- viability, T/C [13]: 16.9%
- viability, T/C [14]: 15.3%
- viability, T/C [15]: 15.3%
- viability, T/C [16]: 14.8%
- viability, T/C [17]: 13.3%
- viability, T/C [18]: 14.8%
- viability, T/C [19]: 15.6%
- viability, T/C [20]: 14.4%
- viability, T/C [21]: 16.4%
- viability, T/C [22]: 14%
- viability, T/C [23]: 14.2%
- viability, T/C [24]: 15.9%
- viability, T/C [25]: 18%
- viability, T/C [26]: 14.7%
- viability, T/C [27]: 17.4%
- viability, T/C [28]: 13.3%
- viability, T/C [29]: 14.6%
- viability, T/C [30]: 14.7%
- viability, T/C [31]: 22.8%
- viability, T/C [32]: 14.2%
- viability, T/C [33]: 16.9%
- viability, T/C [34]: 17.6%
- viability, T/C [35]: 19.7%
- viability, T/C [36]: 19.8%

Compound: O=c1[nH]cc(F)c(=O)[nH]1 + CN(C)c1ccc(Nc2c3ccc(NC(=O)CCN4CCCC4)cc3nc3cc(NC(=O)CCN4CCCC4)ccc23)cc1
- IC50 (second compound 0.0316 µM): 2.12 µM
- IC50 (second compound 0.1 µM): 2.06 µM
- IC50 (second compound 0.316 µM): 2.25 µM
- IC50 (second compound 1 µM): 1.46 µM
- IC50 (second compound 3.16 µM): 1.58 µM
- IC50 (second compound 10 µM): 1.92 µM
- viability, T/C [1]: 114%
- viability, T/C [2]: 98.1%
- viability, T/C [3]: 108%
- viability, T/C [4]: 84.2%
- viability, T/C [5]: 32.1%
- viability, T/C [6]: 30.2%
- viability, T/C [7]: 106%
- viability, T/C [8]: 95.6%
- viability, T/C [9]: 103%
- viability, T/C [10]: 83.4%
- viability, T/C [11]: 28.5%
- viability, T/C [12]: 31.7%
- viability, T/C [13]: 102%
- viability, T/C [14]: 103%
- viability, T/C [15]: 96.8%
- viability, T/C [16]: 81.1%
- viability, T/C [17]: 35.1%
- viability, T/C [18]: 38.6%
- viability, T/C [19]: 92.5%
- viability, T/C [20]: 99%
- viability, T/C [21]: 89.2%
- viability, T/C [22]: 56.9%
- viability, T/C [23]: 35.7%
- viability, T/C [24]: 35.1%
- viability, T/C [25]: 89.5%
- viability, T/C [26]: 71.5%
- viability, T/C [27]: 95.7%
- viability, T/C [28]: 59.9%
- viability, T/C [29]: 32.2%
- viability, T/C [30]: 37.6%
- viability, T/C [31]: 78.9%
- viability, T/C [32]: 74.2%
- viability, T/C [33]: 78%
- viability, T/C [34]: 64.8%
- viability, T/C [35]: 38.7%
- viability, T/C [36]: 36%
